Test results: patent US20230407365A1, “DIAGNOSTIC TOOL FOR SCREENING THE IMPACT OF PRODUCT INGREDIENTS FOR UROGENITAL MICROBIOMES THERAPIES” (priority 2022, published 2023)

Columns and labels:
[1] = test system: Candida albicans; assay: CBD effects on C. albicans, normalized optical density (FIG. 16A); format: cell-based; settings: anaerobically cultured Candida albicans
[2] = test system: Staphylococcus aureus; settings: reported; cited from earlier work
[3] = test system: Streptococcus pneumoniae; settings: reported; cited from earlier work
[4] = test system: L. crispatus; assay: Inhibition results, OD 600 nm (FIG. 21); format: cell-based; settings: MRS broth
Protocol: (§1) Treatments included Product R 2150, Erythromycin 2152, No trt 2154, and Ctrl 2156. […] A drop in pH was expected and observed. Follow up treatments should include a positive control using a gram-positive antibiotic, e.g erythromycin, vancomycin or tetracycline, to show inhibition of the lactobacilli strains L. gasseri 2130 and L. crispatus 2140. The treatment results are measured by OD 600 nm 1715 of one embodiment.

[5] = test system: L. gasseri; assay: Inhibition results, OD 600 nm (FIG. 21); format: cell-based; settings: MRS broth
Protocol: as §1

[6] = test system: E. coli; assay: Quantitative analysis of actives for cannabinoids, culture growth by OD 600 nm (FIG. 18); format: cell-based; settings: aerobic conditions; compared with No treatment Ctrl
Protocol: FIGS. 17A, 17B and 18 show the results of quantitative analysis of actives for cannabinoids for Lactobacillus crispatus, Lactobacillus gasseri and E. coli. Each sample is treated with a CBD distillate, THC distillate, and De Man, Rogosa and Sharpe (MRS) agar plates as indicated on chart. Additionally, a CBD isolate of the samples is also treated.
The treatment results are measured by OD 600 nm 1715 of one embodiment.

[7] = test system: L. crispatus; assay: L. crispatus in anaerobic conditions at 37° C., OD 600 nm (FIG. 19); format: cell-based
Protocol: 1910. […] Confirmation as lactobacilli was confirmed by qPCR. The treatment results are measured by OD 600 nm 1715 of one embodiment.

[8] = test system: L. gasseri; assay: L. gasseri in anaerobic conditions at 37° C., OD 600 nm (FIG. 20); format: cell-based
Protocol: 2010. […] Confirmation as lactobacilli was confirmed by qPCR. The treatment results are measured by OD 600 nm 1715 of one embodiment.

For `C=C(C)[C@@H]1CCC(C)=C[C@H]1c1c(O)cc(CCCCC)cc1O` [CBD, cannabidiol], the “CBD effects on C. albicans (Normalized Optical Density over time)” value [1] is listed as “positive result”, the inhibitory levels [2] is listed as “low micromolar range” and the inhibitory levels [3] is listed as “low micromolar range”.

In the case of `CC[C@H]1OC(=O)[C@H](C)[C@@H](O[C@H]2C[C@@](C)(OC)[C@@H](O)[C@H](C)O2)[C@H](C)[C@@H](O[C@@H]2O[C@H](C)C[C@H](N(C)C)[C@H]2O)[C@](C)(O)C[C@@H](C)C(=O)[C@H](C)[C@@H](O)[C@]1(C)O` [Erythromycin], the “inhibition of growth (OD 600 nm)” value [4] is reported as “no observed inhibition of growth” and the “inhibition of growth (OD 600 nm)” value [5] is reported as “no observed inhibition of growth”.

With `C=C(C)[C@@H]1CCC(C)=C[C@H]1c1c(O)cc(CCCCC)cc1O` [CBD isolate, cannabidiol] the “treatment results measured by OD 600 nm over treatment exposure times (growth inhibition)” value [6] was “relatively similar results”, the “inhibition of growth (OD 600 nm)” value [7] was “lack of inhibition” and the “inhibition of growth (OD 600 nm)” value [8] was “lack of inhibition”.
